Measured values taken from PubChem BioAssay (NCI).
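Cultured in 96-well plates, cells were exposed to test compound for 48 hours across five concentrations. TGI: concentration producing complete growth inhibition.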 Where a SMILES comes first, the peptide text is derived from it. The star is where a group is joined. Boc = CC(C)(C)OC(=O)*; OBn = c1ccc(CO*)cc1; Bn = c1ccc(C*)cc1

Legend:
Assay in all cases: DTP human tumour cell line panel, 48 h
[1] = system: SR leukemia
[2] = system: HCT-15 colon
[3] = system: MALME-3M melanoma
[4] = system: ACHN renal
[5] = system: NCI-H460 lung
[6] = system: SK-MEL-5 melanoma
[7] = system: MCF7 breast
[8] = system: SF-539 CNS
[9] = system: LOX IMVI melanoma
[10] = system: HCC-2998 colon

Structure (SMILES): OC1(c2ccc(Cl)cc2)c2ccccc2C2=Nc3ccccc3CN21 (configuration not stated)
- TGI [1]: > 84.8 µM
- TGI [2]: > 100 µM
- TGI [3]: 92 µM
- TGI [4]: 28.6 µM
- TGI [5]: > 100 µM
- TGI [6]: > 100 µM
- TGI [7]: > 87.7 µM
- TGI [8]: > 100 µM
- TGI [9]: > 100 µM
- TGI [10]: > 100 µM

Structure (SMILES): C(=N\NC1=NCCCN1)/c1ccc(-c2cn3cc(/C=N/NC4=NCCCN4)ccc3n2)cc1
- TGI [1]: > 29 µM
- TGI [2]: > 100 µM
- TGI [3]: 87.4 µM
- TGI [4]: > 100 µM
- TGI [5]: > 100 µM
- TGI [6]: > 100 µM
- TGI [7]: > 100 µM
- TGI [8]: > 100 µM
- TGI [9]: > 100 µM
- TGI [10]: > 100 µM

Structure (SMILES): CC1(C)COC(c2cccc(C3=NC(C)(C)CO3)c2)=N1
- TGI [1]: > 100 µM
- TGI [2]: > 100 µM
- TGI [3]: > 100 µM
- TGI [4]: > 100 µM
- TGI [5]: > 100 µM
- TGI [6]: > 100 µM
- TGI [7]: > 100 µM
- TGI [8]: > 100 µM
- TGI [9]: > 100 µM
- TGI [10]: > 100 µM

Structure (SMILES): CC(C)CC(NC(=O)C(Cc1ccccc1)NC(=O)C(COCc1ccccc1)NC(=O)OC(C)(C)C)C(=O)OCc1ccccc1 (stereo not drawn) (Boc-Ser(Bn)-Phe-Leu-OBn; configuration not given here)
- TGI [1]: 44.3 µM
- TGI [2]: 76 µM
- TGI [3]: > 100 µM
- TGI [4]: 33.1 µM
- TGI [5]: 26.4 µM
- TGI [7]: > 100 µM
- TGI [8]: 72.3 µM
- TGI [9]: 40.1 µM
- TGI [10]: 27.8 µM

Structure (SMILES): CCCCc1ccc(N2C(=O)c3cc(C)cnc3S2(=O)=O)cc1
- TGI [1]: > 100 µM
- TGI [2]: > 100 µM
- TGI [3]: > 100 µM
- TGI [4]: > 100 µM
- TGI [5]: > 100 µM
- TGI [6]: > 100 µM
- TGI [7]: > 100 µM
- TGI [9]: > 100 µM
- TGI [10]: > 100 µM

Structure (SMILES): CC(=O)OCc1ccc(-c2nc(C#N)c(N)o2)o1
- TGI [1]: > 10 µM
- TGI [2]: > 10 µM
- TGI [3]: > 10 µM
- TGI [4]: > 10 µM
- TGI [5]: > 10 µM
- TGI [6]: > 10 µM
- TGI [7]: > 10 µM
- TGI [8]: > 10 µM
- TGI [9]: > 10 µM
- TGI [10]: > 10 µM

Structure (SMILES): Cn1c2ccccc2n2c(=O)c(-c3ccc(O)cc3)nnc12
- TGI [1]: > 100 µM
- TGI [2]: > 100 µM
- TGI [3]: > 100 µM
- TGI [4]: > 100 µM
- TGI [5]: > 100 µM
- TGI [6]: > 100 µM
- TGI [7]: > 100 µM
- TGI [8]: > 100 µM
- TGI [9]: > 100 µM
- TGI [10]: > 100 µM

Structure (SMILES): COc1ccc(NS(=O)C2CCCCC2)cc1 (configuration not stated)
- TGI [1]: > 100 µM
- TGI [2]: > 100 µM
- TGI [3]: > 100 µM
- TGI [4]: > 100 µM
- TGI [5]: > 100 µM
- TGI [6]: > 100 µM
- TGI [7]: > 100 µM
- TGI [8]: > 100 µM
- TGI [9]: > 100 µM
- TGI [10]: > 100 µM

Structure (SMILES): COc1ccc(OC)c2c1C[C@@H]1C(C#N)N3[C@H](Cc4c(OC)ccc(OC)c4[C@@H]3C)C(=O)N1[C@H]2C (some centres not stated)
- TGI [1]: 9.12 µM
- TGI [2]: 11.2 µM
- TGI [3]: 8.61 µM
- TGI [4]: 9.53 µM
- TGI [5]: 48 µM
- TGI [6]: 3.25 µM
- TGI [7]: 17.5 µM
- TGI [8]: 5.97 µM
- TGI [9]: 5.95 µM
- TGI [10]: 14.4 µM

Structure (SMILES): CC(C)C[C@H](NC(=O)[C@@H](Cc1cccc2ccccc12)NC(=O)N1CCOCC1)B(O)O
- TGI [1]: 19.4 µM
- TGI [2]: 50.1 µM
- TGI [3]: 2.72 µM
- TGI [4]: > 100 µM
- TGI [5]: 40.6 µM
- TGI [6]: 9.24 µM
- TGI [7]: > 52.7 µM
- TGI [8]: 4.61 µM
- TGI [9]: 5.98 µM
- TGI [10]: 4.47 µM

Structure (SMILES): CCCCN(CCCC)CC(=O)c1ccc2cc(Cl)c3ccccc3c2c1
- TGI [1]: > 100 µM
- TGI [2]: 53.3 µM
- TGI [3]: > 100 µM
- TGI [4]: 49 µM
- TGI [5]: 52.1 µM
- TGI [6]: 34.6 µM
- TGI [7]: 92.3 µM
- TGI [8]: > 100 µM
- TGI [9]: > 100 µM
- TGI [10]: 76.8 µM

Structure (SMILES): CCN(CC)P1(=S)Oc2ccc3ccccc3c2-c2c(ccc3ccccc23)O1
- TGI [1]: > 100 µM
- TGI [2]: > 100 µM
- TGI [3]: > 100 µM
- TGI [4]: > 100 µM
- TGI [5]: > 100 µM
- TGI [6]: > 100 µM
- TGI [7]: > 100 µM
- TGI [8]: > 100 µM
- TGI [9]: > 100 µM
- TGI [10]: > 100 µM

Structure (SMILES): COC(=O)c1c(C)nc(C)c(N=O)c1-c1ccccc1C(F)(F)F
- TGI [1]: > 100 µM
- TGI [2]: 45.8 µM
- TGI [3]: 30.2 µM
- TGI [4]: > 100 µM
- TGI [5]: > 100 µM
- TGI [6]: 89.4 µM
- TGI [7]: 40.8 µM
- TGI [8]: 45.8 µM
- TGI [9]: 30.8 µM
- TGI [10]: > 100 µM

Structure (SMILES): CCOC(=O)C1(C(=O)OCC)C[C@H]2CON=C2[C@@H]1c1ccc(C(F)(F)F)cc1
- TGI [1]: > 100 µM
- TGI [2]: > 100 µM
- TGI [3]: > 100 µM
- TGI [4]: 34.4 µM
- TGI [5]: > 100 µM
- TGI [6]: > 100 µM
- TGI [7]: > 100 µM
- TGI [8]: > 100 µM
- TGI [9]: 32.4 µM
- TGI [10]: 87.4 µM

Structure (SMILES): COCOc1cc(OC)ccc1C=O
- TGI [1]: 78.4 µM
- TGI [2]: > 100 µM
- TGI [3]: > 100 µM
- TGI [4]: > 100 µM
- TGI [5]: > 100 µM
- TGI [6]: > 100 µM
- TGI [7]: > 100 µM
- TGI [8]: 61.9 µM
- TGI [9]: > 100 µM
- TGI [10]: 71.5 µM

Structure (SMILES): CCC(C#N)N(Cc1cccc(CN(C(C)=O)C(C#N)CC)c1)C(C)=O (configuration not stated)
- TGI [1]: > 100 µM
- TGI [2]: > 100 µM
- TGI [3]: > 100 µM
- TGI [4]: > 100 µM
- TGI [6]: > 100 µM
- TGI [7]: > 100 µM
- TGI [8]: > 100 µM
- TGI [9]: > 100 µM
- TGI [10]: > 100 µM

Structure (SMILES): COc1ccccc1NC(=S)N/N=C(/c1ccccc1)c1ccccn1
- TGI [1]: 1.34 µM
- TGI [2]: 20.3 µM
- TGI [3]: 17.3 µM
- TGI [4]: 11.8 µM
- TGI [5]: 13.3 µM
- TGI [6]: 6.44 µM
- TGI [7]: 3.62 µM
- TGI [8]: 12 µM
- TGI [9]: 15.7 µM
- TGI [10]: 29.1 µM

Structure (SMILES): CC1OC(OC2C(CO)OC(O[C@H]3CC[C@@]4(C)C(=CC[C@H]5[C@@H]6C[C@@H]7O[C@](O)(CC[C@@H](C)COC8OC(CO)C(O)C(O)C8O)[C@@H](C)[C@@H]7[C@@]6(C)CC[C@@H]54)C3)C(OC3OC(C)C(O)C(O)C3O)C2O)C(O)C(O)C1O (some centres not stated)
- TGI [1]: 11 µM
- TGI [2]: 3.91 µM
- TGI [3]: 4.1 µM
- TGI [4]: 12.2 µM
- TGI [5]: 4.57 µM
- TGI [6]: 11.6 µM
- TGI [7]: 5.93 µM
- TGI [8]: 4.21 µM
- TGI [9]: 3.17 µM
- TGI [10]: 7.28 µM

Structure (SMILES): CCOC(=O)c1cc(-c2ccc(OC)c(OC)c2)cn1C
- TGI [1]: > 10 µM
- TGI [2]: > 10 µM
- TGI [3]: > 10 µM
- TGI [4]: > 10 µM
- TGI [5]: > 10 µM
- TGI [6]: > 10 µM
- TGI [7]: > 10 µM
- TGI [8]: > 10 µM
- TGI [9]: > 10 µM
- TGI [10]: > 10 µM

Structure (SMILES): C=C1C(=O)OC2C(C)C3C=CC(=O)[C@@]3(C)C(OC(=O)/C(C)=C/C)C1[C@@H]2OC(C)=O (some centres not stated)
- TGI [1]: 3.61 µM
- TGI [2]: 0.782 µM
- TGI [3]: 0.539 µM
- TGI [4]: 1.68 µM
- TGI [5]: 1.33 µM
- TGI [6]: 2.78 µM
- TGI [7]: 1.37 µM
- TGI [8]: 0.987 µM
- TGI [9]: 0.521 µM
- TGI [10]: 3.2 µM
